Source: ChEMBL document CHEMBL3301361, “Experimental in vitro DMPK and physicochemical data on a set of publicly disclosed compounds”

Experiment: physchem
Conditions: octan-1-ol/water, pH 7.4, LogD7.4

| logD | Structure (SMILES) |
| --- | --- |
| 2.16 | Cc1ccc(Cl)c(Nc2cc(Nc3ccc(OCC(O)CN(C)C)cc3)ncn2)c1 (centres undefined) |
| 2.1 | CN(C)CC(O)COc1ccc(Nc2cc(N(CC#N)c3cc(Cl)ccc3Cl)ncn2)cc1 (centres undefined) |
| 2.1 | Cc1ccc(F)c(Nc2ccnc(Nc3ccc(OCC(O)CN(C)C)cc3)n2)c1 (centres undefined) |
| 2.15 | CC(C)C(NC(=O)Cn1c(-c2cccnc2)ncc(NC(=O)OCc2ccccc2)c1=O)C(=O)C(F)(F)F (centres undefined) |
| 2.22 | CC(C)C(NC(=O)Cn1c(-c2ccc(F)cc2)ncc(NC(=O)OCc2ccncc2)c1=O)C(=O)C(F)(F)F (centres undefined) |
| 2.26 | COc1cc(OC)cc(-c2ccc(NC(=O)OCc3ccccc3)c(=O)n2CC(=O)NC(C(=O)C(F)(F)F)C(C)C)c1 (centres undefined) |
| 2.15 | CC(C)C(NC(=O)Cn1c(-c2ccccc2)ccc(NC(=O)NCc2ccccn2)c1=O)C(=O)C(F)(F)F (centres undefined) |
| 2.38 | Cc1cc(COC(=O)Nc2ccc(-c3ccccc3)n(CC(=O)NC(C(=O)C(F)(F)F)C(C)C)c2=O)cc(C)n1 (centres undefined) |
| 2.12 | CC(C)C(NC(=O)Cn1c(-c2ccccc2)ncc(NC(=O)OCc2ccccc2)c1=O)C(=O)C(F)(F)F (centres undefined) |
| 2.1 | O=S(=O)(NCC(c1ccccc1)N1CCCCCC1)c1cccnc1 (centres undefined) |
| 2.29 | Cc1cc2n[nH]c(=O)n2c2cc(-c3ccncc3)ccc12 |
| 2.22 | Cc1ccc2[nH]c(C(=O)N3CCN(C)CC3)cc2c1 |
| 2.17 | NC(=O)c1cnc(N[C@H]2CCCNC2)c2cc(-c3ccc(F)c(F)c3)sc12 |
| 2.2 | CNC(=O)C1(N2CCCNC2=O)CCN(CC[C@H](CN(C)C(=O)c2c(OC)c(C#N)cc3ccccc23)c2ccc(Cl)c(Cl)c2)CC1 |
| 2.1 | Cc1ccc(-n2[nH]c(=O)c3cccnc32)cc1 |
| 2.26 | CC1CCN(C(=O)c2scc3c2OCCO3)CC1 |
| 2.2 | Cc1nc2nc(NC(=O)c3ccc(F)cc3)nn2c(O)c1Cc1ccccc1 |
| 2.31 | O=C(COc1ccccc1O)NC1CCCC1 |
| 2.35 | Fc1cc2[nH]cnc2cc1Cl |
| 2.18 | Cc1ccccc1C(=O)N1CCN(c2ccccn2)CC1 |
| 2.27 | COc1cc(-c2nnc(S)n2-c2cccc(C(F)(F)F)c2)cc(OC)c1OC |
| 2.1 | O=c1c2ccccc2nc2ccccn12 |

| logD | Structure (SMILES) |
| --- | --- |
| 2.3 | Cc1cc(Nc2ccccc2)n(CCC#N)n1 |
| 2.33 | c1cc2c(cc1-c1cnc3n1CCC3)OCCO2 |
| 2.17 | Cc1ccc(S(=O)(=O)N2CCN(C(=O)c3ccco3)CC2)cc1 |
| 2.15 | CC1(C(=O)NC2CCCCC2)CCC(=O)N1Cc1cccs1 (centres undefined) |
| 2.23 | Cc1ccc2c(N)c(C#N)sc2n1 |
| 2.1 | COc1cccc2[nH]ncc12 |
| 2.36 | COc1cc(CNc2nc3ccccc3[nH]2)cc(OC)c1OC |
| 2.3 | CC1(C)C(=O)Nc2ccccc21 |
| 2.1 | CCCc1c(OCc2ccc(C(=O)O)cc2)ccc(C(C)=O)c1O |
| 2.3 | CCCc1c(OCc2ccc(C(=O)O)c(Br)c2)ccc(C(C)=O)c1O |
| 2.3 | O=C1CCOc2nc(COc3ccccc3)ccc21 |
| 2.2 | CC[C@H](NC(=O)c1c([S+](C)[O-])c(-c2ccccc2)nc2ccccc12)c1cccnc1 (some centres undefined) |
| 2.36 | COc1cc2nnc(C(N)=O)c(Nc3ccc(C)cc3F)c2cc1N1CCN(C)CC1 |
| 2.35 | COc1cc2nnc(C(N)=O)c(Nc3cccc(Cl)c3F)c2cc1N1CCN(C)CC1 |
| 2.2 | Cc1ccc(CO)cc1N(C)c1ccnc(Nc2cc(C(=O)N3CCOCC3)cc(N3CCOCC3)c2)n1 |
| 2.23 | COc1cc(F)ccc1-c1cncc(CNC2CCC2)n1 |
| 2.29 | COc1cc(F)ccc1-c1cncc(CNC2CCCC2)c1 |
| 2.29 | COc1cc(F)ccc1-c1cccc(CNC2CCCC2)c1 |
| 2.1 | Cc1noc(C)c1CCC1CCN(S(=O)(=O)CC2(N(O)C=O)CCC(F)(F)CC2)CC1 |
| 2.3 | O=c1[nH]c2c(O)ccc([C@@H](O)CNCCCSCCOCCc3ccccc3)c2s1 |
| 2.28 | O=c1[nH]c2c(O)ccc([C@@H](O)CNCCCOCCOCCc3cccc4ccccc34)c2s1 |
| 2.3 | COc1cc(N2CCN(C(C)=O)CC2)ccc1Nc1ncc(Cl)c(-c2cnc3cc(C#N)ccn23)n1 |

| logD | Structure (SMILES) |
| --- | --- |
| 2.32 | CCC(c1nc2ccsc2c(=O)n1Cc1ccc(Cl)cc1)N(CCCN)C(=O)c1ccc(C)cc1 (centres undefined) |
| 2.15 | CCC(c1nc2ccsc2c(=O)n1Cc1ccc(OC)cc1)N(CCCN)C(=O)c1ccc(C)cc1 (centres undefined) |
| 2.21 | NC(=O)Nc1cc(-c2cccc(O)c2)sc1C(N)=O |
| 2.36 | NC(=O)c1ccc(=O)n(Cc2ccc(Cl)cc2Cl)c1 |
| 2.38 | COc1ccc(CN2C(=O)CCC2(C)C(=O)NC2CCCCC2)c(OC)c1 (centres undefined) |
| 2.09 | Cc1ccc(/C=C(\C#N)C(N)=O)cc1 |
| 2.3 | O=c1[nH]c2c(O)ccc([C@@H](O)CNCCc3ccc(CNCCc4c(Cl)cccc4Cl)cc3)c2s1 |
| 2.3 | Cc1ccccc1Cn1ccn2c(=O)cc(N3CCOCC3)nc12 |
| 2.3 | Nc1cc2n[nH]c(=O)n2c2cc(-c3ccc[nH]3)ccc12 |
| 2.19 | O=c1[nH]nc2cc(CO)c3ccc(-c4ccc[nH]4)cc3n12 |
| 2.1 | CCN1CCOC(C(=O)N2CCN(C(=O)Nc3ccc(Cl)c(Cl)c3)CC2)C1 (centres undefined) |
| 2.3 | N#Cc1cnn2c(N)cc(-c3cccs3)nc12 |
| 2.32 | COc1cc2c(Nc3ncc(NC(=O)c4ccccc4)cn3)ncnc2cc1OCCCN1CCOCC1 |
| 2.18 | NC(=O)Nc1sc(-c2cc(F)cc(F)c2)cc1C(=O)N[C@H]1CCCNC1 |
| 2.12 | CCN(CCO)CCCOc1cc2ncnc(Nc3cc(CC(=O)Nc4cccc(F)c4)[nH]n3)c2cc1OC |
| 2.27 | CCCSc1ncccc1C(=O)N[C@@H]1[C@@H]2CC3C[C@H]1C[C@@](O)(C3)C2 |
| 2.33 | CCCNc1nc(N2CCC[C@@H](CC(=O)O)C2)ccc1C(=O)NC1CCCCC1 |
| 2.28 | CCCN(C)c1nc(N2CCC[C@@H](CC(=O)O)C2)ccc1C(=O)NC1CCCCC1 |
| 2.24 | O=C(c1ccc(-c2nc(=O)o[nH]2)cc1)N1CCC(N2CCC(Oc3ccc(Cl)c(Cl)c3)CC2)CC1 |
| 2.26 | COCCNS(=O)(=O)c1ccc(-c2cnc(N)c(C(=O)Nc3cccnc3)n2)cc1 |
| 2.34 | CS(=O)(=O)c1ccccc1C(=O)NC[C@@H](O)CN1CCC(Oc2ccc(Cl)c(Cl)c2)CC1 |
| 2.1 | COc1cc(N2CCCN(C)CC2)c2[nH]c(C(=O)Nc3ccc(N4CCOCC4)cc3)cc(=O)c2c1 |

| logD | Structure (SMILES) |
| --- | --- |
| 2.34 | CN(C)c1ccnc2sc3c(=O)n(-c4ccccc4)cnc3c12 |
| 2.1 | CC(c1cc2ccccc2o1)n1[nH]c(=O)c2[nH]c3cc(Cl)ccc3c(=O)c2c1=O (centres undefined) |
| 2.2 | NC(=O)C(NC(=O)C1(N)CCN(c2ncnc3[nH]ccc23)CC1)c1ccc(Cl)cc1 (centres undefined) |
| 2.2 | NC1(C(=O)NC(CS(N)(=O)=O)c2ccc(Cl)cc2)CCN(c2ncnc3[nH]ccc23)CC1 (centres undefined) |
| 2.1 | CS(=O)(=O)NCC(NC(=O)C1(N)CCN(c2ncnc3[nH]ccc23)CC1)c1ccc(Cl)cc1 (centres undefined) |
| 2.2 | CS(=O)(=O)NCCC(NC(=O)C1(N)CCN(c2ncnc3[nH]ccc23)CC1)c1ccc(Cl)cc1 (centres undefined) |
| 2.17 | CC(NC(=O)C1(N)CCN(c2ncnc3[nH]ccc23)CC1)c1ccccc1 (centres undefined) |
| 2.37 | OCCN1CC=CC[C@H](c2ccc(Cl)c(Cl)c2)C1 |
| 2.27 | Cc1cn([C@H]2CCCN(S(=O)(=O)c3ccc(O)c(Oc4cccc(C(F)(F)F)c4)c3)C2)c(=O)[nH]c1=O |
| 2.22 | COc1cc2ncnc(Nc3ccncc3)c2cc1OC |
| 2.15 | C[C@@H](NC(=O)[C@H]1CCCCN1)c1ccc(Nc2ncc3cc(-c4ccncc4)ccc3n2)cc1 |
| 2.1 | Cn1c(N)nc(CCc2ccc3cc[nH]c3c2)cc1=O |
| 2.3 | Fc1ccc2cn[nH]c2c1 |
| 2.33 | Clc1cccc2cn[nH]c12 |
| 2.26 | COc1cc(OC2CCN(C)CC2)c2c(Nc3cccc4c3OCCO4)ncnc2c1 |
| 2.3 | O=C1c2ccc(O)cc2C(=O)N1c1ccccc1 |
| 2.16 | CC(C)C(NC(=O)Cn1c(-c2ccccc2)ccc(NC(=O)NCc2ccncc2)c1=O)C(=O)C(F)(F)F (centres undefined) |
| 2.26 | CC(C)C(NC(=O)Cn1c(-c2ccccc2)ccc(NS(=O)(=O)c2ccccc2)c1=O)C(=O)C(F)(F)F (centres undefined) |
| 2.1 | C[C@@](O)(C(=O)Nc1ccc(S(=O)(=O)NCCCO)cc1Cl)C(F)(F)F |
| 2.1 | CN(C)CC(O)COc1ccc(Nc2cc(N(CCC#N)c3cc(Cl)ccc3Cl)ncn2)cc1 (centres undefined) |
| 2.37 | CCNc1ccc(-c2ccccc2)n(CC(=O)NC(C(=O)C(F)(F)F)C(C)C)c1=O (centres undefined) |
| 2.31 | O=C(c1ccc(CCC(COc2ccc(-c3cccc([N+](=O)[O-])c3)cc2)N2C(=O)CCCC2=O)cc1)N1CCCC1 (centres undefined) |

| logD | Structure (SMILES) |
| --- | --- |
| 2.3 | NC(=O)c1cc(O)cc2nc(-c3ccc(O)cc3)oc12 |
| 2.2 | O=C(Nc1ccccn1)c1ccccc1 |
| 2.11 | CN1Cc2c(N)cccc2[C@@H](c2ccccc2)C1 |
| 2.23 | Nc1ccc2c(c1)C(=O)C(=O)c1ccccc1-2 |
| 2.16 | NC(N)=Nc1cc(Cl)nc(-c2ccccc2)n1 |
| 2.3 | CC(C)[C@@H](CO)NS(=O)(=O)c1ccc(Cl)s1 |
| 2.1 | O=C1c2ccc(O)cc2C(=O)N1c1ccc(O)cc1F |
| 2.36 | Cc1ncc(-c2nc(Nc3ccc(C(=O)N4CC[C@@H](N(C)C)C4)cc3)ncc2F)n1C(C)C |
| 2.26 | Cc1ncc(-c2nc(Nc3ccc(C(=O)NCCN(C)C)c(F)c3)ncc2F)n1C(C)C |
| 2.36 | O=C(c1cccc(Cc2n[nH]c(=O)c3ccccc23)c1)N1CCN(c2ccccn2)CC1 |
| 2.28 | CS(=O)(=O)Nc1cc(Nc2nccc(Nc3c(Cl)ccc4c3OCO4)n2)cc(C(N)=O)c1 |
| 2.2 | Nc1cc(-c2ccccc2)nc2ccccc12 |
| 2.13 | Cc1ncc(-c2nc(Nc3ccc(C(=O)NC4CCN(C)CC4)cc3)ncc2F)n1C(C)C |
| 2.2 | Cn1cc(-c2ccc(O)cc2)c(=O)c2c(O)cc(O)cc21 |
| 2.17 | CN1CCN(C(=O)c2cc(-c3ccccc3)sc2NC(N)=O)CC1 |
| 2.27 | c1ccc(-c2cc(NCCCCCCCCNc3cc(-c4ccccc4)nc4ccccc34)c3ccccc3n2)cc1 |
| 2.14 | COc1cc(OC)cc(-c2cc3cnc(N)nc3nc2N)c1 |
| 2.32 | CC(C)(C(N)=O)C(=O)NCCCNc1nc(Nc2cccc(NC(=O)N3CCCC3)c2)ncc1Br |
| 2.14 | C[C@@](O)(C(=O)Nc1ccc(S(=O)(=O)NCCN2CCOCC2)cc1Cl)C(F)(F)F |
| 2.15 | CC(O)(C(=O)Nc1ccc(S(=O)(=O)c2ccncc2)cc1)C(F)(F)F (centres undefined) |

| Structure (SMILES) | logD |
| --- | --- |
| NC(=O)c1sc(-c2ccsc2)cc1N | 2.23 |
